Source: US6720342B2, “Heterocyclic compounds and their preparation and use” (Novo Nordisk A/S, priority 1996, dated 2004)
Structures can show the parent of a compound that is named as a salt.

Assays:
[1] = biological target: muscarinic acetylcholine receptors; experiment: Inhibition of specific binding of 3H-Oxotremorine-M (3H-Oxo) to rat cortex membranes; settings: rat cortex homogenate, 1.0 nM 3H-Oxotremorine, 30 min at 25° C.
From the text: The pharmacological properties of the compounds of the invention can be illustrated by determining their capability to inhibit the specific binding of ^3H-Oxotremorine-M (^3H-Oxo). Birdsdall N. J. M., Hulme E. C., and Burgen A. S. V. (1980). “The Character of Muscarinic Receptors in Different Regions of the Rat Brain”. Proc. Roy. Soc. London (Series B) 207, 1.
^3H-Oxo labels muscarinic receptor in the CNS (with a preference for agonist domains of the receptors). Three different sites are labelled by ^3H-Oxo. […] Using the present experimental conditions only the high and medium affinity sites are determined.
The inhibitory effects of compounds on ^3H-Oxo binding reflects the affinity for muscarinic acetylcholine receptors.
(§1) All preparations are performed at 0-4° C. unless otherwise indicated. Fresh cortex (0.1-1 g) from male Wistar rats (150-250 g) is homogenized for 5-10 s in 10 ml 20 mM Hepes pH: 7.4, with an Ultra-Turrax homogenizer. The homogenizer is rinsed with 10 ml of buffer and the combined suspension centrifuged for 15 min. at 40,000×g. The pellet is washed three times with buffer. In each step the pellet is homogenized as before in 2×10 ml of buffer and centrifuged for 10 min. at 40,000×g.
The final pellet is homogenized in 20 mM Hepes pH: 7.4 (100 ml per g of original tissue) and used for binding assay. Aliquots of 0.5 ml is added 25 μl of test solution and 25 μl of ^3H-Oxotremorine (1.0 nM, final concentration) mixed and incubated for 30 min. at 25° C. Non-specific binding is determined in triplicate using arecoline (1 μg/ml, final concentration) as the test substance. After incubation samples are added 5 ml of ice-cold buffer and poured directly onto Whatman GF/C glass fiber filters under suction and immediately washed 2 times with 5 ml of ice-cold buffer. The amount of radioactivity on the filters are determined by conventional liquid scintillation counting. Specific binding is total binding minus non specific binding.
Test substances are dissolved in 10 ml water (if necessary heated on a steambath for less than 5 min.) at a concentration of 2.2 mg/ml. 25-75% inhibition of specific binding must be obtained before calculation of IC50.
The test value will be given as IC50 (the concentration (nM) of the test substance which inhibits the specific binding of ^3H-Oxo by 50%).
(§2) IC50=(applied test substance concentration)×(Cx/Co−Cx)nM
(§3) where Co is specific binding in control assays and Cx is the specific binding in the test assay. (The calculations assume normal mass-action kinetics).

[2] = biological target: T1, muscarinic receptors (M1-site, pirenzepine sensitive site) (Rattus norvegicus, UniProt P08482); experiment: Inhibition of 3H-PRZ (pirenzepine, [N-methyl-3H]) binding to rat cerebral cortex membranes; settings: 1.0 nM 3H-Pirenzepine, 60 min at 20° C.
T1 construct: Fresh cortex (0.1-1 g) from male Wistar rats (150-200 g) is homogenized; from tissue; host or cells: rat (male Wistar) cerebral cortex membranes
T1 sequence (P08482 1-460): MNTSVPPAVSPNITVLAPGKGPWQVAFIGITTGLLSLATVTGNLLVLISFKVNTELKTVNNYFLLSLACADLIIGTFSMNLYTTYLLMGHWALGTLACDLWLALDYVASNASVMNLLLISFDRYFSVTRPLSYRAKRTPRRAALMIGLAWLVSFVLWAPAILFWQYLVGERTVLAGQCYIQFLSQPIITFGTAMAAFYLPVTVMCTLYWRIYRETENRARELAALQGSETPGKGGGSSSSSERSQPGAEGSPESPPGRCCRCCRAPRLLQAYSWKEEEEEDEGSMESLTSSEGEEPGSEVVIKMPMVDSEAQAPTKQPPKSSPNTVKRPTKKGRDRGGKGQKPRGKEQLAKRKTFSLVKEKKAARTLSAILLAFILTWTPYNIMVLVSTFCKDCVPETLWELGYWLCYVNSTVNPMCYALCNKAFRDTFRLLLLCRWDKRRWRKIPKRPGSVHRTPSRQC
Experimental: Furthermore the pharmacological properties of the compounds of the invention can also be illustrated by determining their capability to inhibit ^3H-PRZ (pirenzepine, [N-methyl-^3H]) binding to rat cerebral cortex membranes. Pirenzepine binds selectively to subtype of muscarinic receptors. Historically the type is named the M1-site, whereas pirenzepine sensitive site would be more appropriate. Although selective for M1-sites pirenzepine also interact with M2-sites.
as §1, with “rats (150-200” for “rats (150-250”, “5-10 s.” for “5-10 s”, “with 2×10” for “with 10”, “15 min” for “15 min.”, “in 3×10” for “in 2×10”, “10 min” for “10 min.”
The final pellet is homogenized in 20 mM Hepes pH: 7.4 (100 ml per g of original tissue) and used for binding assay. Aliquots of 0.5 ml is added 20 μl of test solution and 25 μl of ^3H-Pirenzepine (1.0 nM, final conc.), mixed and incubated for 60 min at 20° C. Non-specific binding is determined in triplicate using atropine (1 μg/ml, final conc.) as the test substance. After incubation samples are added 5 ml of ice-cold buffer and poured directly onto Whatman GF/C glass fiber filters under suction and immediately washed 2 times with 5 ml of ice-cold buffer. The amount of radioactivity on the filters are determined by conventional liquid scintillation counting. Specific binding is total binding minus non-specific binding.
Test substances are dissolved in 10 ml water, at a concentration of 0.22 mg/ml. 25-75% inhibition of specific binding must be obtained before calculation of IC50.
The test value will be given as IC50 (the concentration (nM) of the test substance which inhibits the specific binding of ^3H-PRZ by 50%).
as §2, §3

| melting point [°C] | Structure (SMILES) | IC50 [1] [nM] | IC50 [2] [nM] |
| --- | --- | --- | --- |
| 142 to 143 | COc1cccc(C#CCOc2nsnc2OC2CN3CCC2C3)c1 (stereo not drawn) (as salt: oxalate) [Compound 6, Endo 3-(3-[3-(3-methoxyphenyl)-2-propynyl-1-oxy]-1,2,5-thiadiazol-4-yloxy)-1-azabicyclo[2.2.1]heptane, oxalate] | – | – |
| 116 to 119 | FC(F)(F)Oc1ccc(COc2nsnc2OC2CN3CCC2C3)cc1 (stereo not drawn) (as salt: oxalate) [Compound 14, Endo 3-(3-[4-trifluoromethoxybenzyloxy]-1,2,5-thiadiazol-4-yloxy)-1-azabicyclo[2.2.1]heptane, oxalate] | – | – |
| 132 to 133 | C(CC1CC1)Oc1nsnc1OC1CN2CCC1C2 (stereo not drawn) (as salt: oxalate) [Compound 8, Endo 3-(3-[2-cyclopropylethyl-1-oxy]-1,2,5-thiadiazol-4-yloxy)-1-azabicyclo[2.2.1]heptane, oxalate] | – | – |

Second part, the molecule before the results:

| Structure (SMILES) | melting point [°C] | IC50 [1] [nM] | IC50 [2] [nM] |
| --- | --- | --- | --- |
| C(#Cc1ccccn1)COc1nsnc1OC1CN2CCC1C2 (stereo not drawn) (as salt: oxalate) [Compound 25, Endo 3-(3-(2-pyridyl)-2-propyn-1-yloxy)-1,2,5-thiadiazol-4-yloxy)-1-azabicyclo[2.2.1]heptane, dioxalate] | 158 to 160 | – | – |
| COCCOc1nsnc1OC1CN2CCC1C2 (stereo not drawn) (as salt: oxalate) [Compound 13, Endo 3-(3-methoxyethoxy-1,2,5-thiadiazol-4-yloxy)-1-azabicyclo[2.2.1]heptane, oxalate] | 139 to 141 | – | – |
| COc1cccc(C#CC(C)Oc2nsnc2OC2CN3CCC2C3)c1 (stereo not drawn) (as salt: oxalate) [Compound 17, Endo 3-(3-[4-(3-methoxyphenyl)-3-butyn-2-yloxy]-1,2,5-thiadiazol-4-yloxy)-1-azabicyclo[2.2.1]heptane, oxalate] | 102 to 103 | – | – |
| N#Cc1ccc(CSc2nsnc2OC2CN3CCC2C3)cc1 (stereo not drawn) (as salt: oxalate) [Compound 31, Endo 3-(3-[4-cyanobenzylthio]-1,2,5-thiadiazol-4-yloxy)-1-azabicyclo-[2.2.1]heptane, oxalate] | 196 to 197 | – | – |
| CSCCOc1nsnc1OC1CN2CCC1C2 (stereo not drawn) (as salt: oxalate) [Compound 12, Endo 3-(3-methylthioethoxy-1,2,5-thiadiazol-4-yloxy)-1-azabicyclo-[2.2.1]heptane, oxalate] | 117 to 119 | – | – |
| CC=CCOc1nsnc1OC1CN2CCC1C2 (stereo not drawn) (as salt: oxalate) [Compound 10, Endo 3-(3-[2-butenyl-1-oxy]-1,2,5-thiadiazol-4-yloxy)-1-azabicyclo[2.2.1]heptane, oxalate] | 129 to 131 | – | – |
| COc1cccc(C#CC(Oc2nsnc2OC2CN3CCC2C3)C(C)C)c1 (stereo not drawn) (as salt: oxalate) [Compound 39, Endo 3-(3-[1-(3-methoxyphenyl)-4-methyl-1-pentyn-3-yloxy]-1,2,5-thiadiazol-4-yloxy)-1-azabicyclo[2.2.1]heptane, oxalate] | 144 to 147 | – | – |
| C(#Cc1ccccc1)COc1nsnc1OC1CN2CCC1C2 (stereo not drawn) [Compound 5, Endo 3-(3-[3-phenyl-2-propynyl-1-oxy]-1,2,5-thiadiazol-4-yloxy)-1-azabicyclo[2.2.1]heptane, oxalate] | – | 10 | 14 |
| Clc1ccc(C#CCOc2nsnc2OC2CN3CCC2C3)cc1 (stereo not drawn) [Compound 18, Endo 3-(3-[3-(4-chlorophenyl)-2-propynyl-1-oxy]-1,2,5-thiadiazol-4-yloxy)-1-azabicyclo[2.2.1]heptane, oxalate] | – | 79 | 12 |
| FC(F)(F)CCCOc1nsnc1OC1CN2CCC1C2 (stereo not drawn) [Compound 15, Endo 3-(3-[4,4,4-trifluorobutyl-1-oxy]-1,2,5-thiadiazol-4-yloxy)-1-azabicyclo[2.2.1]heptane, oxalate] | – | 18 | 14 |
| CCCSc1nsnc1OC1CN2CCC1C2 (stereo not drawn) [Compound 2, Endo 3-(3-propylthio-1,2,5-thiadiazol-4-yloxy)-1-azabicyclo[2.2.1]heptane, oxalate] | – | 1.4 | 4.2 |
| Fc1ccc(CSc2nsnc2OC2CN3CCC2C3)c(F)c1 (stereo not drawn) [Compound 33, Endo 3-(3-[2,4-difluorobenzylthio]-1,2,5-thiadiazol-4-yloxy)-1-azabicyclo-[2.2.1]heptane, oxalate] | – | 83 | 16 |
| CC#CCOc1nsnc1OC1CN2CCC1C2 (stereo not drawn) [Compound 11, Endo 3-(3-[2-butynyl-1-oxy]-1,2,5-thiadiazol-4-yloxy)-1-azabicyclo[2.2.1]heptane, oxalate] | – | 2.1 | 23 |
| CCC(C#Cc1cccc(OC)c1)Oc1nsnc1OC1CN2CCC1C2 (stereo not drawn) [Compound 19, Endo 3-(3-[1-(3-methoxyphenyl)-1-pentyn-3-yloxy]-1,2,5-thiadiazol-4-yloxy)-1-azabicyclo[2.2.1]heptane, oxalate] | – | 126 | 53 |
| CSCCOc1nsnc1OC1CN2CCC1C2 (stereo not drawn) [Compound 12, Endo 3-(3-methylthioethoxy-1,2,5-thiadiazol-4-yloxy)-1-azabicyclo-[2.2.1]heptane, oxalate] | – | 3.7 | 29 |
| FC(F)(F)CCSc1nsnc1OC1CN2CCC1C2 (stereo not drawn) [Compound 29, Endo 3-(3-(3,3,3-trifluoropropylthio)-1,2,5-thiadiazol-4-yloxy)-1-azabicyclo-[2.2.1]heptane, oxalate] | – | 3.1 | 9.1 |
| CC=CCOc1nsnc1OC1CN2CCC1C2 (stereo not drawn) [Compound 10, Endo 3-(3-[2-butenyl-1-oxy]-1,2,5-thiadiazol-4-yloxy)-1-azabicyclo[2.2.1]heptane, oxalate] | – | 5.3 | 20 |
| CCCCSc1nsnc1OC1CN2CCC1C2 (stereo not drawn) [Compound 1, Endo 3-(3-butylthio-1,2,5-thiadiazol-4-yloxy)-1-azabicyclo[2.2.1]heptane, oxalate] | – | 1.6 | 0.14 |
| C(#Cc1ccccn1)COc1nsnc1OC1CN2CCC1C2 (stereo not drawn) [Compound 25, Endo 3-(3-(2-pyridyl)-2-propyn-1-yloxy)-1,2,5-thiadiazol-4-yloxy)-1-azabicyclo[2.2.1]heptane, dioxalate] | – | 1.7 | 4.5 |
| N#CCCSc1nsnc1OC1CN2CCC1C2 (stereo not drawn) [Compound 32, Endo 3-(3-[2-cyanoethylthio]-1,2,5-thiadiazol-4-yloxy)-1-azabicyclo-[2.2.1]heptane, oxalate] | – | 3.1 | 34 |
